6 molecules from patent US20140171629A1, “MEDICINAL AGENT FOR MEDICAL APPLICATIONS” (HITACHI ALOKA MEDICAL, LTD., priority 2011, published 2014) can be followed below.

The test system of experiment [1] is rhabdomyosarcoma cell line (NUTOS). Put plainly: Survival rate of confluent NUTOS cells 15 hours after adding anticancer agent (trypan blue count). Type of experiment: cell-based, human. The conditions noted are these: serum-free DMEM/F12, 15 hours, n=5, FIG. 1. Here is the method: A rhabdomyosarcoma cell line (NUTOS) established from alveolar rhabdomyosarcoma developed in the tongue of a child was used. […] In FIG. 1, the horizontal axis represents the concentration (ng/ml) of the added anticancer agent and the longitudinal axis represents the survival rate (%) of the cells after 15 hours (n=5). 1. Cells were plated on a plate and cultured to a confluent state using a DMEM/F12 culture medium supplemented with 15% fetal bovine serum. 2. The culture medium was removed and replaced with a serum-free DMEM/F12 culture medium supplemented with a given amount of an anticancer agent, and the cells were cultured for 15 hours. 3. The culture medium was removed, and the cells were washed with Hanks' solution and detached with trypsin. The detached cells were transferred to a tube and centrifuged. 4. The supernatant was removed, and the cells were suspended in a given amount of a culture medium. 5. An aliquot of the cell suspension was taken and the same amount of trypan blue was added thereto. Then, the cells were counted using a hemocytometer.

Experiment [2] relates to rhabdomyosarcoma cell line (HUMENS). Description: Survival rate of confluent HUMENS cells 15 hours after adding anticancer agent (trypan blue count). Type of experiment: cell-based. The settings on record: FIG. 2. The procedure: 1. Cells were plated on a plate and cultured to a confluent state using a DMEM/F12 culture medium supplemented with 15% fetal bovine serum.
2. The culture medium was removed and replaced with a serum-free DMEM/F12 culture medium supplemented with a given amount of an anticancer agent, and the cells were cultured for 15 hours.
3. The culture medium was removed, and the cells were washed with Hanks' solution and detached with trypsin. The detached cells were transferred to a tube and centrifuged.
4. The supernatant was removed, and the cells were suspended in a given amount of a culture medium.
5. An aliquot of the cell suspension was taken and the same amount of trypan blue was added thereto. Then, the cells were counted using a hemocytometer.
The percentage of incorporation of a dye was counted 15 hours after adding an anticancer agent (s-PTX, s-CDDP, s-CBDCA, s-ADM, or s-CPA (all of which are in Example 8), PTX, CDDP, CBDCA, ADM, or CPA (all of which are in Comparative Example 2)) to confluent cells (HUMENS) in the same manner as in Example 7 or Comparative Example 1, except that a rhabdomyosarcoma cell line (HUMENS) established from alveolar rhabdomyosarcoma obtained from the mammary gland was used as the cells in place of NUTOS.

In the next experiment the test system is NUTOS cells. Description: Incorporation of serotonin into NUTOS cells (culture medium level, anti-serotonin antibody immunostaining). The settings on record: serotonin in fetal bovine serum added to culture medium. Type of experiment: cell-based, human. The procedure: When fetal bovine serum containing serotonin was added to a culture medium containing this NUTOS cell line, the amount of serotonin in the culture medium was decreased. […] The detailed mechanism of this incorporation has not been elucidated yet, and also the role of serotonin incorporated therein has not been elucidated yet.

The structures appear in SMILES notation.

With `COc1cccc2c1C(=O)c1c(O)c3c(c(O)c1C2=O)C[C@@](O)(C(=O)CO)C[C@@H]3O[C@H]1C[C@H](N)[C@H](O)[C@H](C)O1.Cl` [ADM, adriamycin], the “anticancer effect (survival rate of the cells after 15 hours)” value (“anticancer effect” for short) in experiment [1] and in experiment [2] was “only a slight anticancer effect” in each case.

Consider `[NH2][Pt]([NH2])([Cl])[Cl]` [CDDP, cisplatin], for which the “anticancer effect” value in experiment [1] and in experiment [2] was “exhibited an anticancer effect by itself” each time.

Take `N.N.O=C([O-])C1(C(=O)[O-])CCC1.[Pt+2]` [CBDCA, carboplatin]: the “anticancer effect” value in experiment [1] and in experiment [2] was “exhibited an anticancer effect by itself” in each case.

`NCCc1c[nH]c2ccc(O)cc12` [serotonin]: the “incorporation into NUTOS cells” value with NUTOS cells is “specifically incorporated into the NUTOS cells”.

On to `O=P1(N(CCCl)CCCl)NCCCO1` (centres unmarked) [CPA, cyclophosphamide], for which the figures for the “anticancer effect” value in experiment [1] and in experiment [2] were “only a slight anticancer effect” and “exhibited an anticancer effect by itself”, respectively.

Turning to `CC(=O)O[C@H]1C(=O)[C@@]2(C)[C@H]([C@H](OC(=O)c3ccccc3)[C@]3(O)C[C@H](OC(=O)[C@H](O)[C@@H](NC(=O)c4ccccc4)c4ccccc4)C(C)=C1C3(C)C)[C@]1(OC(C)=O)CO[C@@H]1C[C@@H]2O` [PTX, paclitaxel], the “anticancer effect” value in experiment [1] and in experiment [2] was “exhibited an anticancer effect by itself” in each case.
